Results reported in PMC8597116 (Clinical Pharmacology in Drug Development, 2021).
“And” between values parts separate entries of the source, which are not always exact repeats. Identical values can stand only once. Like-named read-outs stand apart in the source and are kept apart here.

Assays:
[1] = for MPR AUC0‐t (metabolite‐to‐parent ratio) / MPR AUCinf (metabolite‐to‐parent ratio) / MPR Cmax (metabolite‐to‐parent, 5‐HVLX‐gluc to viloxazine, ratio): adjusted for molecular weights; for AUC0‐t, geometric mean / AUCinf, geometric mean / Cmax, geometric mean: geometric least‐squares mean of log‐transformed values
[2] = Safety monitoring: treatment-related adverse events in healthy adults; type: in vivo, human; details: n = 22 per treatment period
[3] = Steady-state plasma pharmacokinetics of paroxetine, healthy adults; type: in vivo, human
CYP2C8 = details: read-out: CYP2C8 IC50; cited from earlier work
CYP3A4/5 = details: read-out: CYP3A4/5 IC50; two values given; cited from earlier work
CYP2D6 [4] = details: read-out: CYP2D6 IC50; cited from earlier work
CYP1A2 = details: cited from earlier work
CYP2C19 = details: read-out: CYP2C19 IC50; cited from earlier work
CYP2C9 = details: read-out: CYP2C9 IC50; cited from earlier work
CYP2D6 [5] = details: cited from earlier work
clinical = details: human, plasma, oral
CYP2B6 = details: read-out: CYP2B6 IC50; cited from earlier work
[6] = Combination (period 3), mean ± SD
[7] = SPN‐812 alone (period 1), 700 mg single dose, plasma, mean ± SD
[8] = SPN‐812 alone (period 1), mean ± SD
[9] = combination versus SPN‐812 alone
[10] = geometric LS mean ratio, period 3/period 1
[11] = paroxetine 20 mg QD coadministration
[12] = day 13, paroxetine 20 mg once daily, mean ± SD

Compound: CCOc1ccc(O[C@@H]2O[C@H](C(=O)O)[C@@H](O)[C@H](O)[C@H]2O)cc1OCC1CNCCO1 (stereo partly drawn) [5‐HVLX‐gluc, 5‐hydroxyviloxazine glucuronide]
- MPR AUC0‐t (metabolite‐to‐parent ratio) [1, 6]: 0.31 ± 0.08 (25.2%)
- MPR AUCinf (metabolite‐to‐parent ratio) [1, 6]: 0.31 ± 0.08 (25.1%)
- MPR Cmax (metabolite‐to‐parent, 5‐HVLX‐gluc to viloxazine, ratio) [1, 6]: 0.33 ± 0.06 (19.2%)
- AUC0‐t, geometric mean ([1]; Combination (period 3)): 60.1
- AUCinf, geometric mean ([1]; Combination (period 3)): 60.3
- Cmax, geometric mean ([1]; Combination (period 3)): 2.8
- AUC0‐t [1, 7]: 70.5 ± 19.6 (27.8%) μg·h/mL
- AUCinf [1, 7]: 70.7 ± 19.7 (27.9%) μg·h/mL
- Cmax [1, 7]: 3.5 ± 0.8 (24.2%) μg/mL
- t1/2 [1, 7]: 5.7 ± 1.7 (29.6%) h
- MPR AUC0‐t (metabolite‐to‐parent ratio) [1, 8]: 0.49 ± 0.15 (31.1%)
- MPR AUCinf (metabolite‐to‐parent ratio) [1, 8]: 0.48 ± 0.15 (31.5%)
- MPR Cmax (metabolite‐to‐parent, 5‐HVLX‐gluc to viloxazine, ratio) [1, 8]: 0.47 ± 0.12 (27.4%)
- AUC0‐t, geometric mean ([1]; SPN‐812 alone (period 1)): 67.8
- AUCinf, geometric mean ([1]; SPN‐812 alone (period 1)): 67.9
- Cmax, geometric mean ([1]; SPN‐812 alone (period 1)): 3.4
- delay of median Tmax after the combination compared with SPN‐812 alone [1, 9]: ≈ 3 hour
- AUC0‐t ratio, combination/SPN‐812 alone (relative bioavailability) [1, 10]: 88.75% and 88.8%
- AUCinf ratio, combination/SPN‐812 alone (relative bioavailability) [1, 10]: 88.77% and 88.8%
- Cmax ratio, combination/SPN‐812 alone (relative bioavailability) [1, 10]: 83.05% and 83.1%
- decrease in AUC0‐t after the combination versus SPN‐812 alone [1, 11]: 12%
- decrease in AUCinf after the combination versus SPN‐812 alone [1, 11]: 12%
- decrease in Cmax after the combination versus SPN‐812 alone [1, 11]: 17%

Compound: Fc1ccc([C@@H]2CCNC[C@H]2COc2ccc3c(c2)OCO3)cc1 [Paroxetine, paroxetine]
- Abnormal dreams (treatment‐related) [2]: 0 n (%)
- Any adverse event (treatment‐related) [2]: 3 (13.6%) n (%)
- Decreased appetite (treatment‐related) [2]: 0 n (%)
- Diarrhea (treatment‐related) [2]: 3 (13.6%) n (%)
- Dysgeusia (treatment‐related) [2]: 0 n (%)
- Palpitations (treatment‐related) [2]: 0 n (%)
- Somnolence (treatment‐related) [2]: 0 n (%)
- Cavg [3, 12]: 29.6 ± 15.7 ng/mL
- Cmin,ss [3, 12]: 22.3 ± 13.4 ng/mL
- AUC ([3]; human, plasma, oral, 20 mg): 709 ± 377 ng·h/mL
- Cmax ([3]; human, plasma, oral, 20 mg): 39 ± 19 ng/mL
- Tmax ([3]; human, plasma, oral, 20 mg): 6 h

Compound: CCOc1ccccc1OCC1CNCCO1 (stereo not drawn) [Viloxazine, viloxazine]
- IC50 (CYP2C8): > 1010 µM
- IC50 (CYP3A4/5): 221 µM and 352 µM
- IC50 (CYP2D6 [4]): 141 µM
- IC50 (CYP1A2; read-out: CYP1A2 reversible inhibition IC50, reversible inhibition): 0.269 µM
- IC50 (CYP1A2; read-out: CYP1A2 time‐dependent inhibition IC50, after 30 minute preincubation with nicotinamide adenine dinucleotide phosphate): 0.0436 µM
- change (increase) in AUC / exposure with CYP2D6 inhibition by paroxetine [1, 9]: < 35%
- delay of median Tmax after the combination compared with SPN‐812 alone [1, 9]: ≈ 1 hour
- increase in AUC0‐t after the combination versus SPN‐812 alone [1, 11]: under 35%
- increase in AUCinf after the combination versus SPN‐812 alone [1, 11]: under 35%
- increase in Cmax after the combination versus SPN‐812 alone [1, 11]: 16%
- IC50 (CYP2C19): > 1010 µM
- IC50 (CYP2C9): > 1010 µM
- share of CYP2D6 in the formation of 5‐hydroxyviloxazine (CYP2D6 [5]): < 50%
- half-life (clinical; 700 mg): 5.2 ± 2.3 h
- AUC (clinical; AUC0‐t, Combination (period 3): SPN‐812 700 mg + paroxetine 20 mg QD, mean ± SD): 112000 ± 23900 ng·h/mL
- IC50 (CYP2B6): 184 µM
